Activity calls are given as the source filed them. The rule behind the calls is not given here.
Assays:
[1] = Solubility of compound; assay type: physicochemical
HEK-293T = assay: Cytotoxicity against human HEK293T cells assessed as reduction in cell viability at 5 to 200 uM incubated for 48 hrs by MTS assay; assay type: cell-based
Mus musculus = assay: Anti-hypoxia in mouse assessed as increase in mouse survival at 400 mg/kg, po administered for 3 days and observed upto day 3 after dosing of 1.5 hrs; assay type: functional, organism-based

| Structure (SMILES) | solubility [1] | Activity (HEK-293T) | Activity (Mus musculus) |
| --- | --- | --- | --- |
| NS(=O)(=O)c1ccc(-c2nnc(-c3cccc(Cl)c3Cl)o2)cc1 | Insoluble | Non-Toxic | – |
| Cc1ccc(-c2nnc(-c3ccc(S(N)(=O)=O)cc3)o2)c(C)c1 | Insoluble | Non-Toxic | – |
| CN(C)c1ccc(-c2nnc(-c3ccc(S(N)(=O)=O)cc3)o2)cc1.CS(=O)(=O)O | – | Non-Toxic | Active |
| CC(=O)Nc1nnc(S(N)(=O)=O)s1 [ACETAZOLAMIDE] | – | Non-Toxic | Active |
